Experimental findings from patent US20250051344A1, “BIFUNCTIONAL SELECTIVE DEGRADERS OF SMARCA2 AND THERAPEUTIC USES THEREOF” (Nurix Therapeutics, Inc., priority 2023, published 2025) are described below.

One assay addresses T1, SMARCA4 (Homo sapiens, UniProt P51532).
T1 construct: endogenous in cells
Description: Cellular degradation assay, SMARCA4 (Table 1). Format: cell-based.

A further assay concerns the target T2, SMARCA2 (Homo sapiens, UniProt P51531).
T2 construct: endogenous in cells
Description: SMARCA2 Cellular Degradation Assay (Western blot analysis on Jess platform). Format: cell-based. To be noted: for DC50 / Dmax: cellular degradation; for Fold Selectivity SMARCA4/2: ratio DC50 SMARCA4 / DC50 SMARCA2. The procedure, abridged:
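SMARCA2 remaining is given as percent of vehicle control, using actin-normalized, background-corrected electropherogram areas. Measurement was by Jess capillary immunoassay (anti-SMARCA2 with anti-β-actin) on 5 μg protein from RIPA/SDS lysates of tumor-derived cells.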
(In general: In western blotting, separated proteins are transferred to a membrane and probed.)

T2 sequence (P51531 whole entry, species assumed): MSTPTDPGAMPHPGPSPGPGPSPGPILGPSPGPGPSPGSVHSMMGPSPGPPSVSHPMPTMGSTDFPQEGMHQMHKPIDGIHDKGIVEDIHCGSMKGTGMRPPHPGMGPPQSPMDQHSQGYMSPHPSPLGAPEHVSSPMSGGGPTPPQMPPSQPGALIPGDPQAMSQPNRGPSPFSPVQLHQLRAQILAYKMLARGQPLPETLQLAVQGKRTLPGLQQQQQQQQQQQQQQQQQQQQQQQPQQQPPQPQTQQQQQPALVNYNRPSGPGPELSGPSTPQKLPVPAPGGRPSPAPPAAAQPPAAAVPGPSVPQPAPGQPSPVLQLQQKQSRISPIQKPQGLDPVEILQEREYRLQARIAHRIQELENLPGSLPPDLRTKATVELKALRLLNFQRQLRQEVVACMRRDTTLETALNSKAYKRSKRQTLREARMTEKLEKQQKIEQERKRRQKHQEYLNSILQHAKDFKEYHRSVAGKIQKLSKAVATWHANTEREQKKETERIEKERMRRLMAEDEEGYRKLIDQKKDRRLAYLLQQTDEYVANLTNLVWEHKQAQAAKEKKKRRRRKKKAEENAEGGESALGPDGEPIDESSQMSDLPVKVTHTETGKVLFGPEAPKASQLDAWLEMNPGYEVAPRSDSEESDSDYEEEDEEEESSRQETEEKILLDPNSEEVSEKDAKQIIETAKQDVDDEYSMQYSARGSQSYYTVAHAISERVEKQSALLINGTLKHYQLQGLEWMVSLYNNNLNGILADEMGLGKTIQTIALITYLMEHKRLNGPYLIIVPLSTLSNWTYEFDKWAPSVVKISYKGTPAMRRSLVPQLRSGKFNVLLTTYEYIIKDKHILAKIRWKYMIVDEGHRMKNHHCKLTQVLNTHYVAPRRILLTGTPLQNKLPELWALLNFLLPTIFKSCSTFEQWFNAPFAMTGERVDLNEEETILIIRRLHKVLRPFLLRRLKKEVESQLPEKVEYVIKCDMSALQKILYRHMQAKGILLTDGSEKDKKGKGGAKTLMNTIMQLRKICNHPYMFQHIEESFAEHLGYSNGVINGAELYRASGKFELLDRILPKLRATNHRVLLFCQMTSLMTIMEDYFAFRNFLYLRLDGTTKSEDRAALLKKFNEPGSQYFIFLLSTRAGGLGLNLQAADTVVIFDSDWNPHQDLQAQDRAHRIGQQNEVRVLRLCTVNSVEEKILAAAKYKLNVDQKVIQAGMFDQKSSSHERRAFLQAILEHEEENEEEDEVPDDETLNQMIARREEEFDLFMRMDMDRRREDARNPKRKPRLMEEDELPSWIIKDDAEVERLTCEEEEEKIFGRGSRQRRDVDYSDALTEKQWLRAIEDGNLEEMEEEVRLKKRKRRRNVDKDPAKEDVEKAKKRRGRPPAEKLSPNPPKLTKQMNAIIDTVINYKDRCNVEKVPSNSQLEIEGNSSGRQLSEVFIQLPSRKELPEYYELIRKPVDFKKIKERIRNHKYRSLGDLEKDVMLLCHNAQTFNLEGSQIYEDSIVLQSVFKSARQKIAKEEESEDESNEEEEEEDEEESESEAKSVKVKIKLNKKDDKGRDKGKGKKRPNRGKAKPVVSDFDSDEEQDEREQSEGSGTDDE
T1 sequence (P51532 whole entry, species assumed): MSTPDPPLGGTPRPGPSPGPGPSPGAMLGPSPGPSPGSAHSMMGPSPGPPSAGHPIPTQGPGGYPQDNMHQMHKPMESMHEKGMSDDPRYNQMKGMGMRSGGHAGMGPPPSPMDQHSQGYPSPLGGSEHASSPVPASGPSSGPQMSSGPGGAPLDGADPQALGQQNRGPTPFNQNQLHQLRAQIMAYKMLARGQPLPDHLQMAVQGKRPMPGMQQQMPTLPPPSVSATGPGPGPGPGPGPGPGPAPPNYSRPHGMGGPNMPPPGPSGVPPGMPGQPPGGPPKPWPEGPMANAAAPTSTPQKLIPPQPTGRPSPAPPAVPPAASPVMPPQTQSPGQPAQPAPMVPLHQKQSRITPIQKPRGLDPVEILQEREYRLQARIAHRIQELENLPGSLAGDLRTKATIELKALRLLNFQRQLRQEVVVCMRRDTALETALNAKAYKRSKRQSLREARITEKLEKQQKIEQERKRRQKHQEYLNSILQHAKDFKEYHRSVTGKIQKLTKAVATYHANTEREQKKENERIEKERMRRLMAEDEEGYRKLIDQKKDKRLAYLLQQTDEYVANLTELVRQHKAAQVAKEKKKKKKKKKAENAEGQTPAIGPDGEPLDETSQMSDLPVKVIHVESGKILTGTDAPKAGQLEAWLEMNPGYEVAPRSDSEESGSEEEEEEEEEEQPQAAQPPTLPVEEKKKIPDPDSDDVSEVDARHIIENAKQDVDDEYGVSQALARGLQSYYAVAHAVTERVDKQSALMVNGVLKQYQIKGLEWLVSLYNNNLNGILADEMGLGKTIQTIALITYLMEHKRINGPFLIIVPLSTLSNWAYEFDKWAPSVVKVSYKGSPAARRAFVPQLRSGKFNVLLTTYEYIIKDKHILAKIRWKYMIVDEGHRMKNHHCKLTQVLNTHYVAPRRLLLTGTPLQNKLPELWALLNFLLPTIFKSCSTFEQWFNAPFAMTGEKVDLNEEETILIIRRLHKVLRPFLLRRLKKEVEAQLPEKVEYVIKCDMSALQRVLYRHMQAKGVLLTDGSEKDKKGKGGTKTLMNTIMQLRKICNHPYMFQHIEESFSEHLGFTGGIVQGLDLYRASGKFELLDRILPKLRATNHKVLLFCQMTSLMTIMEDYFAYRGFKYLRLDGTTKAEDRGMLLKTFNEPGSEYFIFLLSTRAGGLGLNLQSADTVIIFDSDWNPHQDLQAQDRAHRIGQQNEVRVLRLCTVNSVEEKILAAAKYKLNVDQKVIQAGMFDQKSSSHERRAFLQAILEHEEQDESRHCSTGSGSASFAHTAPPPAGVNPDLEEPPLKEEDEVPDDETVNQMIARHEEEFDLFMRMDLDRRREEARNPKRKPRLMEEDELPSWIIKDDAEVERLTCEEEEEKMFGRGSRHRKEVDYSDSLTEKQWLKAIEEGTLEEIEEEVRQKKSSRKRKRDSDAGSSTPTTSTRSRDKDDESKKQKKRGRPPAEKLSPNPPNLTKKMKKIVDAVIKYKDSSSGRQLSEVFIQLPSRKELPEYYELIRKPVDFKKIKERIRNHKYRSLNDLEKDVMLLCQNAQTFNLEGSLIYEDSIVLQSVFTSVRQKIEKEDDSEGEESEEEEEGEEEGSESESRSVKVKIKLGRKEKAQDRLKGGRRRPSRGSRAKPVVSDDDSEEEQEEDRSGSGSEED

Take `CN(C(=O)C1(OC2CC2)CCN(c2cnnc(-c3ccccc3O)c2)CC1)C1CCN(C(=O)CN2CCC(c3ccc([C@@H]4CCC(=O)NC4=O)cc3)CC2)CC1` (racemic) [Example 115, rac-4-cyclopropoxy-n-(1-(2-(4-(4-(2,6-dioxopiperidin-3-yl)phenyl)piperidin-1-yl)acetyl)piperidin-4-yl)-1-(6-(2-hydroxyphenyl)pyridazin-4-yl)-n-methylpiperidine-4-carboxamide]: the Dmax at SMARCA4 was determined as 45.2%. In addition, at SMARCA2, the DC50 amounted to 10.7 nM, the Dmax stood at 77.6% and the “Fold Selectivity SMARCA4/2” value was found to be 937.
At SMARCA4, `CCN(C(=O)C1(c2ccccc2)CCN(c2cnnc(-c3ccccc3O)c2)CC1)C1CCN(C(=O)CN2CCN(c3ccc(C4CCC(=O)NC4=O)cc3)CC2)CC1` (racemic) [Example 185, rac-N-{1-[2-(4-{4-[(3R)-2,6-dioxopiperidin-3-yl]phenyl}piperazin-1-yl)acetyl]piperidin-4-yl}-N-ethyl-1-[6-(2-hydroxyphenyl)pyridazin-4-yl]-4-phenylpiperidine-4-carboxamide] yielded a DC50 of 143 nM and a Dmax of 58.5%. Further, at SMARCA2, the DC50 is 7.13 nM, the Dmax stood at 88.8% and the “Fold Selectivity SMARCA4/2” value was 20.
On the same counts, the results for `CN(C(=O)C1(c2ccnn2C)CCN(c2cnnc(-c3ccccc3O)c2)CC1)C1CCN(CCC2CCN(c3cccc4c3n(C)c(=O)n4C3CCC(=O)NC3=O)CC2)CC1` (racemic) [Example 62, rac-N-{1-[2-(1-{1-[(3R)-2,6-dioxopiperidin-3-yl]-3-methyl-2-oxo-2,3-dihydro-1H-1,3-benzodiazol-4-yl}piperidin-4-yl)ethyl]piperidin-4-yl}-1-[6-(2-hydroxyphenyl)pyridazin-4-yl]-N-methyl-4-(1-methyl-1H-pyrazol-5-yl)piperidine-4-carboxamide] are 151 nM, 52.3%, 0.25 nM, 93.2% and 602.
The matching figures for `CCN(C(=O)C1(c2ccccc2)CCN(c2cnnc(-c3ccccc3O)c2)CC1)C1CCN(CC2CCN(c3ccc([C@H]4CCC(=O)NC4=O)cc3)CC2)CC1` [Example 184, N-{1-[(1-{4-[(3R)-2,6-dioxopiperidin-3-yl]phenyl}piperidin-4-yl)methyl]piperidin-4-yl}-N-ethyl-1-[6-(2-hydroxyphenyl)pyridazin-4-yl]-4-phenylpiperidine-4-carboxamide]: 37.6 nM, 80.7%, 4.88 nM, 91.3% and 8.
`Cc1ccnn1C1(C(=O)N(C)C2CCN(CCC3CCN(c4ccc([C@H]5CCC(=O)NC5=O)cc4)CC3)CC2)CCN(c2cnnc(-c3ccccc3O)c2)CC1` (racemic) [Example 78, rac-N-{1-[2-(1-{4-[(3R)-2,6-dioxopiperidin-3-yl]phenyl}piperidin-4-yl)ethyl]piperidin-4-yl}-1-[6-(2-hydroxyphenyl)pyridazin-4-yl]-N-methyl-4-(5-methyl-1H-pyrazol-1-yl)piperidine-4-carboxamide] displayed a Dmax on SMARCA4 of 37.4%. For the same molecule, at SMARCA2, half-maximal degradation (DC50) was put at 5.1 nM, the Dmax was 85.8% and the “Fold Selectivity SMARCA4/2” value came out at 1961.
On SMARCA4, `CC(N[C@H]1CC[C@@H](NC(=O)C2(c3ccccc3)CCN(c3cnnc(-c4ccccc4O)c3)CC2)CC1)C1CCN(c2ccc([C@H]3CCC(=O)NC3=O)cn2)CC1` (mixture of isomers) [Example 147, 1-[6-(2-hydroxyphenyl)pyridazin-4-yl]-4-phenyl-N-[(1,4s)-4-{[1-(1-{5-[(3rs)-2,6-dioxopiperidin-3-yl]pyridin-2-yl}piperidin-4-yl)ethyl]amino}cyclohexyl]piperidine-4-carboxamide] registered a DC50 of 47.3 nM and a Dmax of 64.5%. For the same molecule, at SMARCA2, it took 13.7 nM to reach half-maximal degradation (DC50), the greatest degradation seen (Dmax) worked out at 76.8% and the “Fold Selectivity SMARCA4/2” value came to 3.
On the same counts, the results for `COc1ccccc1C1(C(=O)N2CC3(C2)CN(C2COC4(CCN(c5ccc([C@H]6CCC(=O)NC6=O)cc5)CC4)C2)C3)CCN(c2cnnc(-c3ccccc3O)c2)CC1` (mixture of isomers) [Example 106, (3R)-3-{4-[(3RS)-3-(6-{1-[6-(2-hydroxyphenyl)pyridazin-4-yl]-4-(2-methoxyphenyl)piperidine-4-carbonyl}-2,6-diazaspiro[3.3]heptan-2-yl)-1-oxa-8-azaspiro[4.5]decan-8-yl]phenyl}piperidine-2,6-dione] are 32.2 nM, 59.4%, 4.91 nM, 78.3% and 7.
The matching figures for `O=C1CCC(c2ccc(N3CCC(F)(CN4CCC(NC(=O)C5(c6ccccc6)CCN(c6cnnc(-c7ccccc7O)c6)CC5)CC4)CC3)cc2)C(=O)N1` (racemic) [Example 179, rac-N-{1-[(1-{4-[(3R)-2,6-dioxopiperidin-3-yl]phenyl}-4-fluoropiperidin-4-yl)methyl]piperidin-4-yl}-1-[6-(2-hydroxyphenyl)pyridazin-4-yl]-4-phenylpiperidine-4-carboxamide]: 211 nM, 57.7%, 17.9 nM, 83.4% and 12.
For the molecule `CN(C(=O)C1(c2ccc(F)cc2)CCN(c2cnnc(-c3ccccc3O)c2)CC1)C1CCN(CCC2CCN(c3ccc(C4CCC(=O)NC4=O)cc3)CC2)CC1` (racemic) [Example 134, rac-N-{1-[2-(1-{4-[(3R)-2,6-dioxopiperidin-3-yl]phenyl}piperidin-4-yl)ethyl]piperidin-4-yl}-4-(4-fluorophenyl)-1-[6-(2-hydroxyphenyl)pyridazin-4-yl]-n-methylpiperidine-4-carboxamide], the Dmax on SMARCA4 came to 31.1%. For the same molecule, on SMARCA2, the DC50 turned out to be 8.79 nM, the Dmax was found to be 87.1% and the “Fold Selectivity SMARCA4/2” value turned out to be 1138.
`CN(C(=O)C1(c2ccnn2C)CCN(c2cnnc(-c3ccccc3O)c2)CC1)C1CCN(CC2CCN(c3ccc(C4CCC(=O)NC4=O)cc3)CC2)CC1` (racemic) [Example 91, rac-N-{1-[(1-{4-[(3R)-2,6-dioxopiperidin-3-yl]phenyl}piperidin-4-yl)methyl]piperidin-4-yl}-1-[6-(2-hydroxyphenyl)pyridazin-4-yl]-N-methyl-4-(1-methyl-1H-pyrazol-5-yl)piperidine-4-carboxamide] returned a Dmax at SMARCA4 of 41.8%. Also, on SMARCA2, half-maximal degradation (DC50) was put at 4.52 nM, the Dmax came to 79.8% and the “Fold Selectivity SMARCA4/2” value is reported as 2212.
As to `CN(C(=O)C1(Oc2ccn(C)n2)CCN(c2cnnc(-c3ccccc3O)c2)CC1)C1CCN(CC2CCN(c3ccc([C@H]4CCC(=O)NC4=O)cc3)CC2)CC1` [Example 125, (r)-n-(1-((1-(4-(2,6-dioxopiperidin-3-yl)phenyl)piperidin-4-yl)methyl)piperidin-4-yl)-1-(6-(2-hydroxyphenyl)pyridazin-4-yl)-n-methyl-4-((1-methyl-1h-pyrazol-3-yl)oxy)piperidine-4-carboxamide], at SMARCA4, it took 36.9 nM to reach half-maximal degradation (DC50) and the Dmax is 62.5%. Besides, on SMARCA2, the DC50 stood at 6.01 nM, the Dmax is 82% and the “Fold Selectivity SMARCA4/2” value came out at 6.
Consider `CN(C(=O)C1(c2ccncc2)CCN(c2cnnc(-c3ccccc3O)c2)CC1)C1CCN(CCC2CCN(c3ccc(C4CCC(=O)NC4=O)c(F)c3)CC2)CC1` (racemic) [Example 75, rac-N-{1-[2-(1-{4-[(3R)-2,6-dioxopiperidin-3-yl]-3-fluorophenyl}piperidin-4-yl)ethyl]piperidin-4-yl}-1-[6-(2-hydroxyphenyl)pyridazin-4-yl]-n-methyl-4-(pyridin-4-yl)piperidine-4-carboxamide], for which, on SMARCA4, the Dmax came out at 35.3%. At SMARCA2, half-maximal degradation (DC50) was put at 2.18 nM, the Dmax came out at 90% and the “Fold Selectivity SMARCA4/2” value came to 4587.
On SMARCA4, `C[C@H](Oc1ccc(C2CCC(=O)NC2=O)cc1)C1CCN(C(=O)C2(c3ccccc3)CCN(c3cnnc(-c4ccccc4O)c3)CC2)CC1` (mixture of isomers) [Example 2, (3RS)-3-{4-[(1S)-1-(1-{1-[6-(2-hydroxyphenyl)pyridazin-4-yl]-4-phenylpiperidine-4-carbonyl}piperidin-4-yl)ethoxy]phenyl}piperidine-2,6-dione] came in with a Dmax of 22.1%. In addition, at SMARCA2, the Dmax was determined as 53.5% and the “Fold Selectivity SMARCA4/2” value worked out at 1.
Turning to `Cn1c(=O)n(C2CCC(=O)NC2=O)c2ccc(N3CCC(CN4CCC5(CC4)CN(C(=O)C4(c6ccccc6)CCN(c6cnnc(-c7ccccc7O)c6)CC4)C5)CC3)cc21` (racemic) [Example 159, rac-(3R)-3-(5-{4-[(2-{1-[6-(2-hydroxyphenyl)pyridazin-4-yl]-4-phenylpiperidine-4-carbonyl}-2,7-diazaspiro[3.5]nonan-7-yl)methyl]piperidin-1-yl}-3-methyl-2-oxo-2,3-dihydro-1H-1,3-benzodiazol-1-yl)piperidine-2,6-dione], on SMARCA4, it took 1.45 nM to reach half-maximal degradation (DC50) and the Dmax is 82.2%. At SMARCA2, it took 0.38 nM to reach half-maximal degradation (DC50), the Dmax came to 89.5% and the “Fold Selectivity SMARCA4/2” value was 4.
Consider `CN(C(=O)CN1CCN(c2ccc([C@H]3CCC(=O)NC3=O)cc2)CC1)[C@H]1CC[C@H](NC(=O)C2(Oc3ccccc3)CCN(c3cnnc(-c4ccccc4O)c3)CC2)CC1` (racemic) [Example 173, 1-[6-(2-hydroxyphenyl)pyridazin-4-yl]-4-phenoxy-N-[(1r,4r)-4-[2-(4-{4-[(3R)-2,6-dioxopiperidin-3-yl]phenyl}piperazin-1-yl)-N-methylacetamido]cyclohexyl]piperidine-4-carboxamide], for which the Dmax on SMARCA4 came out at 39.8%. For the same molecule, at SMARCA2, it took 44.9 nM to reach half-maximal degradation (DC50), the Dmax turned out to be 62% and the “Fold Selectivity SMARCA4/2” value was determined as 223.

As usually defined, the Dmax is the largest share of the target that was removed. High values mean a fuller loss of target, low ones a partial loss of target. By DC50 is commonly meant the midpoint of the concentration-degradation curve.
